Source: patent US9029364B2, “2,5-disubstituted thiomorpholine orexin receptor antagonists” (Merck Sharp & Dohme Corp., priority 2011, dated 2015)
pKi: −log10 of the molar value.

Target: human orexin-2 receptor (Homo sapiens (Human), UniProt O43614)
Test: radioligand binding assay, orexin-2 receptor (hOX2 Bind hKi)
Settings: membranes from CHO cells expressing OX2 receptor
Description: In a typical experiment the OX1 and OX2 receptor antagonistic activity of the compounds of the present invention was determined in accordance with the following experimental method. For intracellular calcium measurements, Chinese hamster ovary (CHO) cells expressing the rat orexin-1 receptor or the human orexin-2 receptor, are grown in Iscove's modified DMEM containing 2 mM L-glutamine, […], 1% hypoxanthine-thymidine supplement, 100 U/ml penicillin, 100 μg/ml streptomycin and 10% heat-inactivated fetal calf serum (FCS). The cells are seeded at 20,000 cells/well into Becton-Dickinson black 384-well clear bottom sterile plates coated with poly-D-lysine. All reagents were from GIBCO-Invitrogen Corp. The seeded plates are incubated overnight at 37° C. and 5% CO2. Ala-6,12 human orexin-A as the agonist is prepared as a 1 mM stock solution in 1% bovine serum albumin (BSA) and diluted in assay buffer (HBSS containing 20 mM HEPES, 0.1% BSA and 2.5 mM probenecid, pH7.4) for use in the assay at a final concentration of 70 pM. Test compounds are prepared as 10 mM stock solution in DMSO, then diluted in 384-well plates, first in DMSO, then assay buffer. On the day of the assay, cells are washed 3 times with 100 μl assay buffer and then incubated for 60 min (37° C., 5% CO2) in 60 μl assay buffer containing 1 μM Fluo-4AM ester, 0.02% pluronic acid, and 1% BSA. The dye loading solution is then aspirated and cells are washed 3 times with 100 μl assay buffer. 30 μl of that same buffer is left in each well. Within the Fluorescent Imaging Plate Reader (FLIPR, Molecular Devices), test compounds are added to the plate in a volume of 25 μl, incubated for 5 min and finally 25 μl of agonist is added. Fluorescence is measured for each well at 1 second intervals for 5 minutes and the height of each fluorescence peak is compared to the height of the fluorescence peak induced by 70 pM Ala-6,12 orexin-A with buffer in place of antagonist. For each antagonist, IC50 value (the concentration of compound needed to inhibit 50% of the agonist response) is determined. Alternatively, compound potency can be assessed by a radioligand binding assay (described in Bergman et. al. Bioorg. Med. Chem. Lett. 2008, 18, 1425-1430) in which the inhibition constant (Ki) is determined in membranes prepared from CHO cells expressing either the OX1 or OX2 receptor. The intrinsic orexin receptor antagonist activity of a compound which may be used in the present invention may be determined by these assays.
The following tables show representative data for the compounds of the Examples as orexin receptor antagonists as determined by the foregoing assays wherein the hOX2 Ki is a measure of the ability of the test compound to inhibit the action of the human orexin-2 receptor and the hOX1R is a measure of the ability of the test compound to inhibit the action of the rat orexin-1 receptor.

Sequence of human orexin-2 receptor (O43614 whole entry): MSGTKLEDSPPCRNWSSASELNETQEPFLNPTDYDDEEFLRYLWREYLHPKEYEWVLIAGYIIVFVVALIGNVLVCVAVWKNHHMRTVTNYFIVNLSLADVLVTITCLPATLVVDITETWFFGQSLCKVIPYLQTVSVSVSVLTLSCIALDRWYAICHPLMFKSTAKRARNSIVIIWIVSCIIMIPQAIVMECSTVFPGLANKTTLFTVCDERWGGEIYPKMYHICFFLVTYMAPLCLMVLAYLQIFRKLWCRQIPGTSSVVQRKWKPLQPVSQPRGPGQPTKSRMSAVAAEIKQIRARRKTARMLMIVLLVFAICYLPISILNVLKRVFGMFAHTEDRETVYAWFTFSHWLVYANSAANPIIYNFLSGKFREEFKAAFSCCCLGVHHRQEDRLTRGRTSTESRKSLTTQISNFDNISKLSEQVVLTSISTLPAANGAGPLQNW

| SMILES | pKi |
| --- | --- |
| Cc1ccc(-n2nccn2)c(C(=O)N2C[C@H](COc3ccc(F)cn3)SC[C@H]2C)c1 [Example 1, [(2R,5R)-2-{[(5-Fluoropyridin-2-yl)oxy]methyl}-5-methylthiomorpholin-4-yl][5-methyl-2-(2H-1,2,3-triazol-2-yl)phenyl]methanone] | 9.42 |
| C[C@@H]1CS[C@@H](COc2ccccn2)CN1C(=O)c1ccccc1-n1nccn1 [Example 2, (2R,5R)-5-methyl-2-[(pyridin-2-yloxy)methy1]-4-{[2-(2H-1,2,3-triazol-2-yl)phenyl]carbonyl} thiomorpholine] | 7.82 |
| C[C@@H]1CS[C@@H](COc2ccc(F)cn2)CN1C(=O)c1ccccc1-n1nccn1 [Example 3, (2R,5R)-2-{[(5-fluoropyridin-2-yl)oxy]methyl}-5-methy1-4-{[2-(2H-1,2,3-triazol-2-yl)phenyl]carbonyl} thiomorpholine] | 9.05 |
| Cc1ccc(OC[C@H]2CN(C(=O)c3ccccc3-n3nccn3)[C@H](C)CS2)nc1 [Example 4, (2R,5R)-5-methyl-2-{[(5-methylpyridin-2-yl)oxy]methyl}-4-{[2-(2H-1,2,3-triazol-2-yl)phenyl]carbonyl} thiomorpholine] | 8.01 |
| C[C@@H]1CS[C@@H](COc2ccc(Cl)cn2)CN1C(=O)c1ccccc1-n1nccn1 [Example 5, (2R,5R)-2-{[(5-chloropyridin-2-yl)oxy]methyl}-5-methyl-4-{[2-(2H-1,2,3-triazol-2-yl)phenyl]carbonyl} thiomorpholine] | 8.77 |
| C[C@@H]1CS[C@@H](COc2ccc(C#N)cn2)CN1C(=O)c1ccccc1-n1nccn1 [Example 6, 6-{[(2R,5R)-5-methy1-4-{[2-(2H-1,2,3-triazol-2-yl)phenyl]carbonyl}thiomorpholin-2-yl]methoxy}pyridine-3-carbonitrile] | 7.33 |
| C[C@@H]1CS[C@@H](COc2ccc(C(F)(F)F)cn2)CN1C(=O)c1ccccc1-n1nccn1 [Example 7, (2R,5R)-5-methyl-4-{[2-(2H-1,2,3-triazol-2-yl)phenyl]carbonyl}-2-({[5-(trifluoromethyl)pyridin-2-yl]oxy}methyl)thiomorpholine] | 7.18 |
| C[C@@H]1CS[C@@H](COc2ncccc2Cl)CN1C(=O)c1ccccc1-n1nccn1 [Example 8, (2R,5R)-2-{[(3-chloropyridin-2-yl)oxy]methyl}-5-methyl-4-{[2-(2H-1,2,3-triazol-2-yl)phenyl]carbonyl} thiomorpholine] | 8.60 |
| C[C@@H]1CS[C@@H](COc2ncccc2C#N)CN1C(=O)c1ccccc1-n1nccn1 [Example 9, 2-{[(2R,5R)-5-methy1-4-{[2-(2H-1,2,3-triazol-2-yl)phenyl]carbonyl}thiomorpholin-2-yl]methoxy}pyridine-3-carbonitrile] | 6.82 |
| Cc1ccnc(OC[C@H]2CN(C(=O)c3ccccc3-n3nccn3)[C@H](C)CS2)c1 [Example 10, (2R,5R)-5-methyl-2-{[(4-methylpyridin-2-yl)oxy]methyl}-4-{[2-(2H-1,2,3-triazol-2-yl)phenyl]carbonyl} thiomorpholine] | 6.72 |
| C[C@@H]1CS[C@@H](COc2ncccn2)CN1C(=O)c1ccccc1-n1nccn1 [Example 11, (2R,5R)-5-methyl-2-[(pyrimidin-2-yloxy)methy1]-4-{[2-(2H-1,2,3-triazol-2-yl)phenyl]carbonyl} thiomorpholine] | < 5.33 |
| Cc1nc(OC[C@H]2CN(C(=O)c3ccccc3-n3nccn3)[C@H](C)CS2)ncc1Cl [Example 12, (2R,5R)-2-{[(5-chloro-4-methylpyrimidin-2-yl)oxy]methyl}-5-methyl-4-{[2-(2H-1,2,3-triazol-2-yl)phenyl]carbonyl} thiomorpholine] | 7.49 |
| Cc1cnc(OC[C@H]2CN(C(=O)c3ccccc3-n3nccn3)[C@H](C)CS2)nc1Cl [Example 13, (2R,5R)-2-{[(4-chloro-5-methylpyrimidin-2-yl)oxy]methyl}-5-methyl-4-{[2-(2H-1,2,3-triazol-2-yl)phenyl]carbonyl} thiomorpholine] | 8.13 |
| COc1cnc(OC[C@H]2CN(C(=O)c3ccccc3-n3nccn3)[C@H](C)CS2)nc1Cl [Example 14, (2R,5R)-2-{[(4-chloro-5-methoxypyrimidin-2-yl)oxy]methyl}-5-methyl-4-{[2-(2H-1,2,3-triazol-2-yl)phenyl]carbonyl} thiomorpholine] | 6.81 |
| C[C@@H]1C[S+]([O-])[C@@H](COc2ccc(F)cn2)CN1C(=O)c1ccccc1-n1nccn1 (stereo partly drawn) [Example 15, [(2R,5R)-2-{[(5-Fluoropyridin-2-yl)oxy]methyl}-5-methyl-1-oxidothiomorpholin-4-yl][2-(2H-1,2,3-triazol-2-yl)phenyl]methanone] | 6.77 |
| C[C@@H]1CS[C@@H](CSc2ccccn2)CN1C(=O)c1ccccc1-n1nccn1 [Example 17, {(2R,5R)-5-Methyl-2-[(pyridine-2-ylsulfanyl)methyl]thiomorpholin-4-yl}[2-(2H-1,2,3-triazol-2-yl)phenyl]methanone] | 7.01 |
